Data set [1] can be described thus: Noncompartmental plasma pharmacokinetics of CN-105 in CATCH participants. In kind it is in vivo, human. To be noted: for clearance / Vd / half-life: human, 1 mg/kg; for Vd: Vz.
For data set [2], the system named is patients with acute primary supratentorial ICH. As to the kind of experiment: Hematoma volume from CT images. In kind it is in vivo, human.

As to Ac-VSRRR-NH2 [CN-105], the “Accumulation, mean (SD) ratio of AUCs” value in data set [1] (Dose 1:Dose 13, SD) is given as 1.3 (0.4). Also, the CL turned out to be 7.7 L/h in data set [1] (Maximum, N=6) and 4.6 L/h in data set [1] (Minimum, N=6). The Vz is 56.8 L in data set [1] (Maximum, N=6) and 25.2 L in data set [1] (Minimum, N=6). For the same substance, the t1/2 in data set [1] (Maximum, N=6) came to 8.7 h; in data set [1] (Minimum, N=6), 2.3 h. For the same substance, the “λz,ss” value amounted to 0.3 h⁻¹ in data set [1] (Maximum, N=6); 0.2 h⁻¹ in data set [1] (Mean, N=6, SD 0.1, after last dose); 0.2 h⁻¹ in data set [1] (Median, N=6); 0.1 h⁻¹ in data set [1] (Minimum, N=6). Besides, the “Mean (SD) maximum concentrations” value in data set [1] (dose 13, 1.0 mg/kg IV over 30 min every 6 h, plasma, LC-MS/MS, SD 1335.9) was 5638.3 ng/mL. Besides, the clearance is 122 mL/min in data set [1] (plasma, intravenous) and 113 mL/min in data set [1] (plasma, iv). For the same substance, the Vd turned out to be 41.2 L in data set [1] (plasma, intravenous, Mean, N=6, SD 12.1) and 37.2 L in data set [1] (plasma, intravenous, Median, N=6). The half-life is 4.5 h in data set [1] (plasma, intravenous, t1/2, Mean, N=6, SD 2.2, terminal phase) and 3.8 h in data set [1] (plasma, intravenous, t1/2, Median, N=6). Also, the “Mean (SD) hematoma volume by CT” value is 25.1 (25.1) cm^3 in data set [2] (Day 1 after ICH), 21.9 (24.9) cm^3 in data set [2] (Day 2 after ICH), 19.7 (19.6) cm^3 in data set [2] (Day 5 after ICH) and 22.8 (23.7) cm^3 in data set [2] (on admission). Besides, in data set [2] (Days 0, 1, 2, 5, box plots, descriptive), the “hematoma volumes versus 1:1 matched ERICH participants” value was “No difference”. In data set [2] (Nine of 38, one with clinical deterioration), the “participants with incidence of hemorrhage extension” value is recorded as 24%.

A word on the Vz: it is the apparent volume that relates the amount in the body to the concentration in plasma or blood. Higher therefore signals wide distribution into tissue. The clearance is the rate of elimination divided by the concentration. Read a low clearance as inefficient removal. Broadly, the Vd is a proportionality between amount in the body and measured concentration, not a real space. Lower therefore signals confinement near the circulation. In general, half-life refers to how long it takes for the measured level to halve. A higher half-life goes with slow loss.

For the origin of these results see publication doi:10.1101/2020.10.13.20211417v1 (medRxiv, 2020).
